These results are taken from patent publication US10940110B2, “Method and system for the treatment of chronic COPD with nebulized anticholinergic administrations” (Sunovion Respiratory Development Inc., priority 2008, dated 2021).

The experiment relates to patients with COPD. The conditions noted are these: 200 μg.
[1] abbreviates: high efficiency nebulizer, 24 hour time point.

Procedure: GIS 200 μg/0.5 mL oral inhalation via eFlow.
GIS 75 μg/0.5 mL oral inhalation via eFlow; 2. GIS 500 μg/0.5 mL oral; 3. GIS 1000 n/0.5 mL oral inhalation via eFlow.
The primary efficacy variable was serial spirometry throughout the 36 hour period after dosing. The spirometry assessments include forced expiratory volume in one second (FEV1), forced vital capacity (FVC), peak expiratory flow rate (PEFR), FEV1% of predicted normal.

In the case of `C[N+]1(C)CCC(OC(=O)C(O)(c2ccccc2)C2CCCC2)C1` (centres unmarked) [glycopyrrolate, 3-[(cyclopentylhydroxyphenylacetyl)oxy]-1,1-dimethylpyrrolidinium], the “increase in FEV1 above baseline (% change from baseline)” value (conventional jet nebulizer, 12 hr time point and beyond) is not above 10%. Also, where the note is “conventional jet nebulizer, any time point after 12 hr”, the “increase in FEV1 above baseline” value is listed as not above 100 mL. Further, the “mean improvement in peak lung function (peak FEV1) compared to the same dose in the conventional jet nebulizer” value (high efficiency nebulizer vs conventional jet nebulizer) is “about 45 mL”. Under setting [1], the “improvement in FEV1 above baseline (% change from baseline)” value is reported as “greater than 10%” and the “improvement in lung function, FEV1 above baseline” value is “greater than 100 mL”.
